Results: PMC12344683, “N-alkyl and N-benzyl indoles are anti-SARS-CoV-2 agents and nsp13 inhibitors” (Journal of Enzyme Inhibition and Medicinal Chemistry, 2025)

Tests used:
[1] = target: T1, SARS-CoV-2 nsp13 (Severe acute respiratory syndrome coronavirus 2, UniProt P0DTD1); test: SARS-CoV-2 nsp13 ATPase-associated activity (Biomol Green, BSA-TCEP); format: biochemical; conditions: for IC50: SARS-CoV-2 nsp13-associated ATPase activity, from dose-response curves; for remaining activity at 30 µM: read-out: Percentage of enzymatic residual activity (ATPase)
[2] = target: T1, SARS-CoV-2 nsp13; test: SARS-CoV-2 nsp13 unwinding-associated activity (fluorescence, BSA-TCEP); format: biochemical; conditions: for IC50: SARS-CoV-2 nsp13-associated unwinding activity, from dose-response curves; for remaining activity at 30 µM: read-out: Percentage of enzymatic residual activity (unwinding)
[3] = Cellular toxicity assay (GFP signal as viability); format: cell-based; conditions: African green monkey; Vero cells; read-out: CC50, concentration required to reduce Vero cells viability by 50%
Procedure: Vero E6-green fluorescent protein (GFP) cells (Janssen Pharmaceutical were maintained in Dulbecco’s modified Eagle’s medium (DMEM, Gibco) supplemented with 10% v/v foetal beef serum (FBS, Gibco), 0.075% Sodium Bicarbonate (7.5% solution, Gibco) and 1X Pen-strep (Euroclone) and kept under 5% CO2 on 37 ◦C. The cells were seeded at 10 000 cells/well in 96-well black cell-treated plates (PerkinElmer). The following day, cells were incubated with the control compounds at different concentrations. Compound was dissolved in 0.1% DMSO. Seventy-two hours post infection the GPF signal, as direct index of cellular viability, was quantified by measuring the total-well fluorescence with a Victor 3 multiplate reader (PerkinElmer) set to excitation and emission wavelengths of 485 and 535 nm, respectively.
The percentage of induced cytopathic effects (CPE) was calculated considering the mock as 100% of cell viability, and the readout from empty wells as blank. The compound half-maximal cytopathic concentration (CC50), was determined via non-linear regression by using on Prism 9 v. 9.4.1 software (GraphPad) the built-in function dose-response inhibition, log-concentration-normalized response. Experimental points represent the average and standard deviation of at least two sets of independent triplicates.

[4] = read-out: Activity in enzyme assay IC50 ATPase BSA-TCEP
[5] = read-out: Activity in enzyme assay IC50 Unwinding BSA-TCEP
[6] = Activity in enzyme assay IC50 ATPase BSA-TCEP
[7] = Activity in enzyme assay IC50 Unwinding BSA-TCEP

Compound | IC50 [1, 4] [µM] | IC50 [2, 5] [µM] | other results
COc1ccc(Cn2cc(/C=C/C(=O)/C=C(\O)C(=O)O)c3ccccc32)cc1 [5a, (2Z,5E)-2-hydroxy-6-(1-(4-methoxybenzyl)-1H-indol-3-yl)-4-oxohexa-2,5-dienoic acid] | 19.9 ± 0.73 | 10.5 ± 0.81 | 
Cc1ccc(Cn2cc(/C=C/C(=O)/C=C(\O)C(=O)O)c3ccccc32)cc1 [5b] | 3.83 ± 0.45 | 13.6 ± 1.96 | 
O=C(/C=C(\O)C(=O)O)/C=C/c1cn(Cc2ccc(F)cc2)c2ccccc12 [5d, (2Z,5E)-6-(1-(4-fluorobenzyl)-1H-indol-3-yl)-2-hydroxy-4-oxohexa-2,5-dienoic acid] | 9.91 ± 0.5 | 7.63 ± 2.48 | 
O=C(/C=C(\O)C(=O)O)/C=C/c1cn(Cc2ccc(OC(F)(F)F)cc2)c2ccccc12 [5e] | 6.41 ± 0.05 | 6.24 ± 0.24 | CC50 at 72 h [3]: > 100 µM
O=C(/C=C(\O)C(=O)O)/C=C/c1cn(S(=O)(=O)c2ccccc2)c2ccccc12 [5f] | 5.36 ± 0.74 | 7.54 ± 0.76 | 
N#Cc1ccc(Cn2cc(/C=C/C(=O)/C=C(\O)C(=O)O)c3ccccc32)cc1 [5g, (2Z,5E)-6-(1-(4-cyanobenzyl)-1H-indol-3-yl)-2-hydroxy-4-oxohexa-2,5-dienoic acid] | 1.91 ± 0.31 | 2.08 ± 0.04 | CC50 at 72 h [3]: > 100 µM
O=C(/C=C(\O)C(=O)O)/C=C/c1cn(Cc2ccc(O)cc2)c2ccccc12 [5h, (2Z,5E)-2-hydroxy-6-(1-(4-hydroxybenzyl)-1H-indol-3-yl)-4-oxohexa-2,5-dienoic acid] | 9.1 ± 3.4 | 2.77 ± 0.42 | 
O=C(/C=C(\O)C(=O)O)/C=C/c1cn(Cc2ccc(F)cc2)c2ccc(Cl)cc12 [5i, (2Z,5E)-6-(5-chloro-1-(4-fluorobenzyl)-1H-indol-3-yl)-2-hydroxy-4-oxohexa-2,5-dienoic acid] | 26.3 ± 2.52 | 0.47 ± 0.01 | CC50 at 72 h [3]: > 100 µM; selectivity for unwinding over ATPase ([2]; IC50 unwinding vs IC50 ATPase): 2 order of magnitude; gain in activity on unwinding with respect to the hit 4 ([2]; ratio of IC50 values): 27 fold
CCOC(=O)/C(O)=C/C(=O)/C=C/c1cn(Cc2ccc(OC)cc2)c2ccccc12 [6a, Ethyl (2Z,5E)-2-hydroxy-6-(1-(4-methoxybenzyl)-1H-indol-3-yl)-4-oxohexa-2,5-dienoate] | 2.21 ± 0.26 | 6.65 ± 1.2 | 
CCOC(=O)/C(O)=C/C(=O)/C=C/c1cn(Cc2ccc(C)cc2)c2ccccc12 [6b] | 2.88 ± 0.59 | 7.34 ± 1.81 | 
CCOC(=O)/C(O)=C/C(=O)/C=C/c1cn(Cc2ccc(C(C)C)cc2)c2ccccc12 [6c] | 5.8 ± 0.12 | 5.81 ± 0.47 | 
CCOC(=O)/C(O)=C/C(=O)/C=C/c1cn(Cc2ccc(F)cc2)c2ccccc12 [6d, Ethyl (2Z,5E)-6-(1-(4-fluorobenzyl)-1H-indol-3-yl)-2-hydroxy-4-oxohexa-2,5-dienoate] | 3.22 ± 0.14 | 3.64 ± 0.11 | 
CCOC(=O)/C(O)=C/C(=O)/C=C/c1cn(Cc2ccc(OC(F)(F)F)cc2)c2ccccc12 [6e] | 2.17 ± 0.26 | 5.66 ± 0.21 | CC50 at 72 h [3]: > 100 µM
CCOC(=O)/C(O)=C/C(=O)/C=C/c1cn(S(=O)(=O)c2ccccc2)c2ccccc12 [6f] | 7.07 ± 0.74 | 11 ± 0.37 | 
CCOC(=O)/C(O)=C/C(=O)/C=C/c1cn(Cc2ccc(C#N)cc2)c2ccccc12 [6g, Ethyl (2Z,5E)-6-(1-(4-cyanobenzyl)-1H-indol-3-yl)-2-hydroxy-4-oxohexa-2,5-dienoate] | 6.24 ± 0.24 | 6.76 ± 1.18 | 
CCOC(=O)/C(O)=C/C(=O)/C=C/c1cn(Cc2ccc(O)cc2)c2ccccc12 [6h, Ethyl (2Z,5E)-2-hydroxy-6-(1-(4-hydroxybenzyl)-1H-indol-3-yl)-4-oxohexa-2,5-dienoate] | 3.7 ± 0.74 | 15.4 ± 1.47 | 
CCOC(=O)/C(O)=C/C(=O)/C=C/c1cn(Cc2ccc(F)cc2)c2ccc(Cl)cc12 [6i, Ethyl (2Z,5E)-6-(5-chloro-1-(4-fluorobenzyl)-1H-indol-3-yl)-2-hydroxy-4-oxohexa-2,5-dienoate] | 3.92 ± 0.96 | 5.22 ± 0.44 | 
COc1ccc(Cn2cc(C(=O)/C=C(\O)C(=O)O)c3ccccc32)cc1 [7a] |  |  | IC50 [1, 6]: > 30 µM; remaining activity at 30 µM [1]: 73.4%; IC50 [2, 7]: > 30 µM; remaining activity at 30 µM [2]: 50.4%
Cc1ccc(Cn2cc(C(=O)/C=C(\O)C(=O)O)c3ccccc32)cc1 [7b] |  |  | IC50 [1, 6]: 8.33 ± 0.45 µM; IC50 [2, 7]: 20.6 ± 3.22 µM
CC(C)c1ccc(Cn2cc(C(=O)/C=C(\O)C(=O)O)c3ccccc32)cc1 [7c] |  |  | IC50 [1, 6]: 13 ± 1.08 µM; IC50 [2, 7]: 14.1 ± 0.48 µM

Compound | IC50 [1, 4] [µM] | IC50 [2, 5] [µM] | other results
O=C(O)/C(O)=C/C(=O)c1cn(Cc2ccc(F)cc2)c2ccccc12 [7d, (Z)-4-(1-(4-fluorobenzyl)-1H-indol-3-yl)-2-hydroxy-4-oxobut-2-enoic acid] |  |  | IC50 [1, 6]: > 30 µM; remaining activity at 30 µM [1]: 70%; IC50 [2, 7]: > 30 µM; remaining activity at 30 µM [2]: 50%
O=C(O)/C(O)=C/C(=O)c1cn(Cc2ccc(OC(F)(F)F)cc2)c2ccccc12 [7e] |  |  | IC50 [1, 6]: 20.3 µM; IC50 [2, 7]: 22.2 ± 1.37 µM
O=C(O)/C(O)=C/C(=O)c1cn(Cc2ccccc2)c2ccccc12 [7j, (Z)-4-(1-benzyl-1H-indol-3-yl)-2-hydroxy-4-oxobut-2-enoic acid] |  |  | IC50 [1, 6]: 10.3 ± 1.75 µM; IC50 [2, 7]: 30 ± 1.5 µM
CCOC(=O)/C(O)=C/C(=O)c1cn(Cc2ccc(OC)cc2)c2ccccc12 [8a] |  |  | IC50 [1, 6]: 8.06 ± 1.78 µM; IC50 [2, 7]: 13.1 ± 1.78 µM
CCOC(=O)/C(O)=C/C(=O)c1cn(Cc2ccc(C)cc2)c2ccccc12 [8b] |  |  | IC50 [1, 6]: 7.01 ± 0.05 µM; IC50 [2, 7]: 13.2 ± 2.76 µM
CCOC(=O)/C(O)=C/C(=O)c1cn(Cc2ccc(C(C)C)cc2)c2ccccc12 [8c] |  |  | IC50 [1, 6]: 9.64 ± 2.27 µM; IC50 [2, 7]: 9.66 ± 2.89 µM
CCOC(=O)/C(O)=C/C(=O)c1cn(Cc2ccc(OC(F)(F)F)cc2)c2ccccc12 [8e] |  |  | IC50 [1, 6]: 2.29 ± 0.02 µM; IC50 [2, 7]: 11.3 ± 0.65 µM
CCOC(=O)/C(O)=C/C(=O)c1cn(Cc2ccccc2)c2ccccc12 [8j, Ethyl (Z)-4-(1-benzyl-1H-indol-3-yl)-2-hydroxy-4-oxobut-2-enoate] |  |  | IC50 [1, 6]: 14.5 ± 1.49 µM; IC50 [2, 7]: 26 ± 0.89 µM
C/C=C/Cn1cc(/C=C/C(=O)/C=C(\O)C(=O)O)c2ccccc21 [9a, (2Z,5E)-6-(1-((E)-but-2-en-1-yl)-1H-indol-3-yl)-2-hydroxy-4-oxohexa-2,5-dienoic acid] | > 30 | 19.4 ± 3.7 | remaining activity at 30 µM ([1]; measured at 30 µM): 70%
C=C(C)Cn1cc(/C=C/C(=O)/C=C(\O)C(=O)O)c2ccccc21 [9b, (2Z,5E)-2-hydroxy-6-(1-(2-methylallyl)-1H-indol-3-yl)-4-oxohexa-2,5-dienoic acid] | > 30 | > 30 | remaining activity at 30 µM ([1]; measured at 30 µM): 68%; remaining activity at 30 µM ([2]; measured at 30 µM): 72%
CCn1cc(/C=C/C(=O)/C=C(\O)C(=O)O)c2ccccc21 [9d] | 8.32 ± 0.08 | 11.8 ± 4.03 | 
CCCCn1cc(/C=C/C(=O)/C=C(\O)C(=O)O)c2ccccc21 [9e, (2Z,5E)-6-(1-butyl-1H-indol-3-yl)-2-hydroxy-4-oxohexa-2,5-dienoic acid] | > 30 |  | remaining activity at 30 µM ([1]; measured at 30 µM): 100%; remaining activity at 30 µM ([2]; measured at 30 µM): 41%
CC(C)CCn1cc(/C=C/C(=O)/C=C(\O)C(=O)O)c2ccccc21 [9f, (2Z,5E)-2-hydroxy-6-(1-isopentyl-1H-indol-3-yl)-4-oxohexa-2,5-dienoic acid] | 23.1 ± 1.41 | 15.9 ± 0.59 | 
C/C=C/Cn1cc(/C=C/C(=O)/C=C(\O)C(=O)OCC)c2ccccc21 [10a, Ethyl (2Z,5E)-6-(1-((E)-but-2-en-1-yl)-1H-indol-3-yl)-2-hydroxy-4-oxohexa-2,5-dienoate] | 8.79 ± 0.69 | 13.2 ± 1.86 | 
C=C(C)Cn1cc(/C=C/C(=O)/C=C(\O)C(=O)OCC)c2ccccc21 [10b, Ethyl (2Z,5E)-2-hydroxy-6-(1-(2-methylallyl)-1H-indol-3-yl)-4-oxohexa-2,5-dienoate] | 7.26 ± 0.65 | 21.5 ± 0.23 | 
CCOC(=O)/C(O)=C/C(=O)/C=C/c1cn(C=C(C)C)c2ccccc12 [10c, Ethyl (2Z,5E)-2-hydroxy-6-(1-(2-methylprop-1-en-1-yl)-1H-indol-3-yl)-4-oxohexa-2,5-dienoate] | 4.93 ± 1.4 | 19.3 ± 0.76 | 
CCOC(=O)/C(O)=C/C(=O)/C=C/c1cn(CC)c2ccccc12 [10d] | 18.5 ± 0.65 | 11.8 ± 4.03 | 
CCCCn1cc(/C=C/C(=O)/C=C(\O)C(=O)OCC)c2ccccc21 [10e, Ethyl (2Z,5E)-6-(1-butyl-1H-indol-3-yl)-2-hydroxy-4-oxohexa-2,5-dienoate] | 5.72 ± 1.63 | 14.8 ± 1.18 | 
CCOC(=O)/C(O)=C/C(=O)/C=C/c1cn(CCC(C)C)c2ccccc12 [10f, Ethyl (2Z,5E)-2-hydroxy-6-(1-isopentyl-1H-indol-3-yl)-4-oxohexa-2,5-dienoate] | 6.27 ± 0.2 | 13.5 ± 0.25 | 
CC[C@@]1(O)C(=O)OCc2c1cc1n(c2=O)Cc2cc3ccccc3nc2-1 [Camptothecin, reference compound] |  |  | CC50 at 72 h [3]: 11.1 ± 0.16 µM
